Results as given in patent US7795257B2, “Organic compounds” (Novartis AG, priority 2005, dated 2010).
Where a name gives a salt, the structure may show the parent alone.

Molecular target: T1, recombinant GST-GK (Homo sapiens, UniProt P35557)
T1 sequence (P35557 1-465): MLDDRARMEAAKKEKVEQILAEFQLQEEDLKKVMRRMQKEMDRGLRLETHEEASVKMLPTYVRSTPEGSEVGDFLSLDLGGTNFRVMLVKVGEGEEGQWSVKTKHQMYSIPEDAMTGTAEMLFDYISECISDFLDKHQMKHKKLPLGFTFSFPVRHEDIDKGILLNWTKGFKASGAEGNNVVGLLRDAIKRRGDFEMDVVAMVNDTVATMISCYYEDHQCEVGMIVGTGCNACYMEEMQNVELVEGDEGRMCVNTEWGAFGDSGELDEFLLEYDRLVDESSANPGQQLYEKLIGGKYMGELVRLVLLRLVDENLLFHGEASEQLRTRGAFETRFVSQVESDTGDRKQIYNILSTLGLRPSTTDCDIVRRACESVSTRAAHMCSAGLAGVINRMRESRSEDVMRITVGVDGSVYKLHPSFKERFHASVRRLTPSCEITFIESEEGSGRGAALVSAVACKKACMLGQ
Test: primary enzyme assay: glucokinase activation in vitro (thio-NADH coupled assay)
Assay type: biochemical
Conditions: concentration of compound that produces a 50% increase in the activity of GK vs DMSO control; 10 mM glucose, 25° C.
From the text: For example, the glucokinase activation in vitro may be determined by measuring the activation of recombinant GST-GK by a compound of the present invention in the absence or the presence of GKRP, a 68,000 Da protein inhibitor of GK. In these assays, formation of glucose-6-phosphate is coupled directly to the formation of thio-NADH. GST-GK catalyzes the reaction of glucose and Mg-ATP to produce glucose-6-phosphate and ADP. Glucose-6-phosphate dehydrogenase (G6PDH) reduces thionicotinamide (thio-NAD) to thio-NADH. The assay measures the formation of thio-NADH at […].
The basic GK assay components are as follows: 25 mM HEPES (pH 7.1), 25 mM KCl, 2.5 mM MgCl2, 1 mM ATP (Sigma A-5394), 1 mM DTT, 1 mM thio-NAD (Sigma T-7375), 80 units/mL G6PDH (Sigma G-5885), 10 mM glucose and 110 nM GST-GK. For assessing reversal of GK inhibition by GKRP, 20 μM Fructose-6-phosphate (F-6-P) and 370 nM recombinant GKRP are added to these assay components. Fructose-1-phosphate (F-1-P) at 1 μM is used as a control in the GK/GKRP assay. F-1-P reverses inhibition of GST-GK by GKRP.
The assay is done in standard, 96-well, round-bottom plates (Corning) and the total assay volume is 25 μL. Test compounds are serially diluted into 100% DMSO and 0.5 μL of diluted compound in 100% DMSO is added to the assay plate. Assay reagents (24.5 μL) are added using a Zymark robotic platform. Buffer, containing HEPES, MgCl2, KCl, thio-NAD, G6PDH, glucose and GST-GK, are added (5 μL) using the Zymark 8-channel hand pipet. For the GK/GKRP assay, GKRP and F-6-P are also included. The reaction is then initiated by adding 19.5 μL of buffer containing HEPES, MgCl2, KCl, DTT and ATP using the Zymark Reagent Addition Station/Reagent Addition Module. The plates are read kinetically over 10 min at 25° C. using a SpectraMax Plus microplate spectrophotometer (Molecular Devices, Sunnyvale, Calif.) to monitor the increase in optical density at 405 nm. The GK activity in wells containing test compounds is compared with activity in DMSO control wells. The concentration of compound that produces a 50% increase in the activity of GK is calculated and expressed as EC50.

SMILES | EC50
CN1CCN(S(=O)(=O)c2ccc(C(CC3CCCC3)C(=O)Nc3nccc4ccccc34)cc2)CC1 (stereo not shown) [Example 1, 3-Cyclopentyl-N-isoquinolin-1-yl-2-[4-(4-methyl-piperazine-1-sulfonyl)-phenyl]-propionamide hydrochloride] | 50000 nM
CN1CCN(S(=O)(=O)c2ccc(C(CC3CCCC3)C(=O)Nc3ccc(C(=O)O)cn3)cc2)CC1 (stereo not shown) [Example 4-23, 6-{3-Cyclopentyl-2-[4-(4-methyl-piperazine-1-sulfonyl)-phenyl]-propionylamino}-nicotinic acid] | 1400 nM
COc1ccc2nc(NC(=O)C(CC3CCCC3)c3ccc(S(=O)(=O)N4CCC(C(=O)O)CC4)cc3)sc2n1 (stereo not shown) [Example 3, 1-{4-[2-Cyclopentyl-1-(5-methoxy-thiazolo[5,4-b]pyridin-2-ylcarbamoyl)-ethyl]-benzenesulfonyl}-piperidine-4-carboxylic acid] | 7100 nM
COCCN(C)C(=O)c1ccc2nc(NC(=O)[C@H](CC3CCCC3)c3ccc(S(=O)(=O)N4CCN(C)CC4)cc3)sc2n1 [Example 4-52, 2-{(R)-3-Cyclopentyl-2-[4-(4-methyl-piperazine-1-sulfonyl)-phenyl]-propionylamino}-thiazolo[5,4-b]pyridine-5-carboxylic acid (2-methoxy-ethyl)-methyl-amide] | 2100 nM
COc1ccc2nc(NC(=O)C(CC3CCCC3)c3ccc(S(=O)(=O)N4CCNCC4C(=O)O)cc3)sc2n1 (stereo not shown) [Example 4-94, 1-{4-[2-Cyclopentyl-1-(5-methoxy-thiazolo[5,4-b]pyridin-2-ylcarbamoyl)-ethyl]-benzenesulfonyl}-piperazine-2-carboxylic acid] | 9300 nM
CN1CCN(S(=O)(=O)c2ccc(C(CC3CCCC3)C(=O)Nc3nccc4ccccc34)cc2)CC1 (stereo not shown) [Example 4-1, 3-Cyclopentyl-N-isoquinolin-1-yl-2-[4-(4-methyl-piperazine-1-sulfonyl)-phenyl]-propionamide] | 1100 nM

Stronger by EC50, values ahead:

EC50 | SMILES
390 nM | CN1CCN(S(=O)(=O)c2ccc(C(CC3CCCC3)C(=O)Nc3nc4ccc(Br)nc4s3)cc2)CC1 (stereo not shown) [Example 4-22, N-(5-Bromo-thiazolo[5,4-b]pyridin-2-yl)-3-cyclopentyl-2-[4-(4-methyl-piperazine-1-sulfonyl)-phenyl]-propionamide]
260 nM | CN1CCN(S(=O)(=O)c2ccc(C(CC3CCCC3)C(=O)Nc3nc4ccc(-c5ccccc5)nc4s3)cc2)CC1 (stereo not shown) [Example 4-44, 3-Cyclopentyl-2-[4-(4-methyl-piperazine-1-sulfonyl)-phenyl]-N-(5-phenyl-thiazolo[5,4-b]pyridin-2-yl)-propionamide]
95 nM | CCN(CC)S(=O)(=O)c1ccc(C(CC2CCCC2)C(=O)Nc2nc3c(s2)CN(C(=O)OC(C)(C)C)CC3)cc1 (stereo not shown) [Example 4-8, 2-[3-Cyclopentyl-2-(4-diethylsulfamoyl-phenyl)-propionylamino]-6,7-dihydro-4H-thiazolo[5,4-c]pyridine-5-carboxylic acid tert-butyl ester]
60 nM | CCN(CC)S(=O)(=O)c1ccc(C(CC2CCCC2)C(=O)Nc2nccs2)cc1 (stereo not shown) [Example 4-15, 3-Cyclopentyl-2-(4-diethylsulfamoyl-phenyl)-N-thiazol-2-yl-propionamide]
